Results as given in patent publication US4985352A (The Trustees of Columbia University in the City of New York, priority 1989, dated 1991).

System: NIH3T3 cells
Assay: Flow cytometry of intracellular Ca2+ in control untransfected NIH3T3 cells
Format: cell-based, mouse
Settings: untransfected NIH3T3 cells loaded with indo-1

**Q.** For `NCCc1c[nH]c2ccc(O)cc12` [serotonin, 5-hydroxytryptamine], which “Intracellular Ca2+ response to serotonin” value is on record?
**A.** did not respond
